Reference: patent US7354588B1, “Functional derivatives of ICAM-1 with altered ability to bind LFA-1 or HRV” (Dana Farber Cancer Institute, priority 1987, dated 2008)
*1 amine or outer side, *2 acyl side, *3 side chain or, on linkers, in order; H or OH if unused. Where a SMILES comes first, the peptide text is derived from it. Bridges are numbered along the chain shown (N, C = ends). Roman numbers before positions name the chains, in order. [ ]: non-standard residue; d: D form. Actinocin(9to1) = Cc1c2oc3c(C)ccc(C(=O)[*:1])c3nc-2c(C(=O)[*:2])c(N)c1=O; NMeV = CN[C@H](C(=O)O)C(C)C; Sar = CNCC(=O)O

Assays:
[1] = tested on: ICAM-1 expression on human dermal fibroblasts; assay: ^125I goat anti-mouse IgG binding assay, anti-ICAM-1, dermal fibroblasts; assay type: cell-based
Method: (§1) The kinetics of interleukin 1 and gamma interferon effects on ICAM-1 expression on dermal fibroblasts were determined using the ^125I goat anti-mouse IgG binding assay of Dustin, M. L. et al. (J. Immunol. 137:245-254 (1986); which reference is herein incorporated by reference). To perform this binding assay, human dermal fibroblasts were grown in a 96-well microtiter plate to a density of 2−8×10^4 cells/well (0.32 cm^2). The cells were washed twice with RPMI 1640 medium supplemented as described in Example 1. The cells were additionally washed once with Hanks Balanced Salt Solution (HBSS), 10 mM HEPES, 0.05% NaN3 and 10% heat-inactivated fetal bovine serum. Washing with this binding buffer was done at 4° C. To each well was added 50 μl of the above-described binding buffer and 50 μl of the appropriate hybridoma supernatant with X63 and W6/32 as the negative and positive controls, respectively. After incubation for 30 minutes at 4° C., with gentle agitation, the wells were washed twice with binding buffer, and the second antibody ^125I-goat anti-mouse IgG, was added at 50 nCi in 100 μl. The ^125I-goat anti-mouse antibody was prepared by using Iodogen (Pierce) according to the method of Fraker, P. J. et al. (Biochem. Biophys. Res. Commun. 80:849 (1978)). After 30 minutes at 4° C., the wells were washed twice with 200 μl of binding buffer and the cell layer was solubilized by adding 100 μl of 0.1 N NaOH. This and a 100 μl wash were counted in a Beckman 5500 gamma counter. The specific counts per minute bound was calculated as [cpm with monoclonal antibody]-[cpm with X63]. All steps, including induction with specific reagents, were carried out in quadruplicate.

[2] = tested on: HLA-A,B,C expression on human dermal fibroblasts; assay: ^125I goat anti-mouse IgG binding assay, anti-HLA-A,B,C, dermal fibroblasts; assay type: cell-based
Method: as §1

[3] = tested on: ICAM-1 expression on human umbilical vein endothelial cells (HUVEC); assay: Radioimmune assay of ICAM-1 expression with ^125I RR1/1, HUVEC; assay type: cell-based; conditions: for ^125I Specifically bound (CPM), HUVEC / fold of control ICAM-1 expression, HUVEC: 16 hr; for ^125I Specifically bound (CPM), HUVEC: rIL-1 beta 100 ng/ml, rIL-1 alpha 50 ng/ml, rTNF alpha 50 ng/ml, LPS 10 μg/ml, rIFN gamma 10 ng/ml, polymyxin B 10 μg/ml, control 603 ± 11; for fold of control ICAM-1 expression, HUVEC: same concentrations as CPM; for increase of ICAM-1 expression on HUVEC: IL-1 beta 100 ng/ml, rTNF 50 ng/ml, Interferon-gamma 10,000 U/ml
Method: (§2) In order to measure ICAM-1 expression, a radioimmune assay was developed. In this assay, purified RR1/1 was iodinated using iodogen to a specific activity of 10 μCi/μg. Endothelial cells were grown in 96 well plates and treated as described for each experiment. The plates were cooled at 4° C. by placing in a cold room for 0.5-1 hr, not immediately on ice. The monolayers were washed 3× with cold complete media and then incubated 30 m at 4° C. with ^125I RR1/1. The monolayers were then washed 3× with complete media. The bound 125, was released using 0.1 N NaOH and counted. The specific activity of the ^125I RR1/1 was adjusted using unlabeled RR1/1 to obtain a linear signal over the range of antigen densities encountered in this study. Non-specific binding was determined in the presence of a thousand fold excess of unlabeled RR1/1 and was subtracted from total binding to yield the specific binding.
(§3) Upregulation of ICAM-1 expression on HVEC and HSVEC-HUVEC or HSVEC were seeded into 96 well plates at 1:3 from a confluent monolayer and allowed to grow to confluence. Cells were then treated with the indicated materials or media for 16 hr and the RIA done as in methods. All points were done in quadruplicate.

[4] = tested on: ICAM-1 expression on human saphenous vein endothelial cells (HSVEC); assay: Radioimmune assay of ICAM-1 expression with ^125I RR1/1, HSVEC; assay type: cell-based; conditions: for ^125I Specifically bound (CPM), HSVEC / fold of control ICAM-1 expression, HSVEC: 16 hr; for ^125I Specifically bound (CPM), HSVEC: rIL-1 beta 100 ng/ml, rTNF alpha 50 ng/ml, LPS 10 μg/ml, rIFN gamma 10 ng/ml, control 1132 ± 31; for fold of control ICAM-1 expression, HSVEC: same concentrations as CPM; for increase of ICAM-1 expression on HSVEC: IL-1 beta 100 ng/ml, rTNF 50 ng/ml, Interferon-gamma 10,000 U/ml
Method: as §2, §3

[5] = molecular target: T1, LFA-1 (Homo sapiens, UniProt P05107+P20701); assay: Adherence of COS cells expressing ICAM-1 or ICAM-1 mutants to plastic-bound purified LFA-1; assay type: cell-based; conditions: COS cells expressing ICAM-1 mutant adhering to LFA-1 coated plastic; normalized for percent of cells expressing mutant and for wild type binding; mean
T1 construct: endogenous in cells
T1 sequence (P20701 26-1170): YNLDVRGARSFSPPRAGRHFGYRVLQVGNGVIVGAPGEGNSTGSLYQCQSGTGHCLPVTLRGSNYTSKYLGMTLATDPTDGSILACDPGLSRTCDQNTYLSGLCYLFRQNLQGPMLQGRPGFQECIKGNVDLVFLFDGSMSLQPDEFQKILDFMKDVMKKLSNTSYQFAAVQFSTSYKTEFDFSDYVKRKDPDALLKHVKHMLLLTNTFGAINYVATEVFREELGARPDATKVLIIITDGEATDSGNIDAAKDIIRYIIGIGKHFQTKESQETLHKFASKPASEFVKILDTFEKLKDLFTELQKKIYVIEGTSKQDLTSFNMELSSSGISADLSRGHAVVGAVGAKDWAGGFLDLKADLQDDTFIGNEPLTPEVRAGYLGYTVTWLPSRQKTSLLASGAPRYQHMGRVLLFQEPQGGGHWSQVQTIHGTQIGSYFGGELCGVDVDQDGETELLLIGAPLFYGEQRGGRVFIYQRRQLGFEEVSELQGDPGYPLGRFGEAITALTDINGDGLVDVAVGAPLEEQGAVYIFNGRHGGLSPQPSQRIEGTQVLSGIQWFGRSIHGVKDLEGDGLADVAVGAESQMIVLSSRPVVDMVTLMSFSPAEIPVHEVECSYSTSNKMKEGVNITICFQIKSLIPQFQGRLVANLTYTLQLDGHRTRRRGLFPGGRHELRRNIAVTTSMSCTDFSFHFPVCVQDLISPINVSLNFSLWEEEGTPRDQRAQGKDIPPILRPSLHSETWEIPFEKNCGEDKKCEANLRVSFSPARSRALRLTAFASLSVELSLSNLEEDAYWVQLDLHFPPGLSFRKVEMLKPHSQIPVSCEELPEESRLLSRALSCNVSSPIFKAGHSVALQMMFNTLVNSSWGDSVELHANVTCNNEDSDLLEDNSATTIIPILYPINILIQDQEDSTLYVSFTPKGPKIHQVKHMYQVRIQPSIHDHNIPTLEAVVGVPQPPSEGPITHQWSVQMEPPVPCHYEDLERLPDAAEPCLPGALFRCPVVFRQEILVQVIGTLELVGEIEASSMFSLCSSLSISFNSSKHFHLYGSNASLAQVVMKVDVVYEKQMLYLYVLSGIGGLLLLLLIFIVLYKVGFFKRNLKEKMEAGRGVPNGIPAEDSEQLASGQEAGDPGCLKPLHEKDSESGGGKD
T1 sequence (P05107 23-769): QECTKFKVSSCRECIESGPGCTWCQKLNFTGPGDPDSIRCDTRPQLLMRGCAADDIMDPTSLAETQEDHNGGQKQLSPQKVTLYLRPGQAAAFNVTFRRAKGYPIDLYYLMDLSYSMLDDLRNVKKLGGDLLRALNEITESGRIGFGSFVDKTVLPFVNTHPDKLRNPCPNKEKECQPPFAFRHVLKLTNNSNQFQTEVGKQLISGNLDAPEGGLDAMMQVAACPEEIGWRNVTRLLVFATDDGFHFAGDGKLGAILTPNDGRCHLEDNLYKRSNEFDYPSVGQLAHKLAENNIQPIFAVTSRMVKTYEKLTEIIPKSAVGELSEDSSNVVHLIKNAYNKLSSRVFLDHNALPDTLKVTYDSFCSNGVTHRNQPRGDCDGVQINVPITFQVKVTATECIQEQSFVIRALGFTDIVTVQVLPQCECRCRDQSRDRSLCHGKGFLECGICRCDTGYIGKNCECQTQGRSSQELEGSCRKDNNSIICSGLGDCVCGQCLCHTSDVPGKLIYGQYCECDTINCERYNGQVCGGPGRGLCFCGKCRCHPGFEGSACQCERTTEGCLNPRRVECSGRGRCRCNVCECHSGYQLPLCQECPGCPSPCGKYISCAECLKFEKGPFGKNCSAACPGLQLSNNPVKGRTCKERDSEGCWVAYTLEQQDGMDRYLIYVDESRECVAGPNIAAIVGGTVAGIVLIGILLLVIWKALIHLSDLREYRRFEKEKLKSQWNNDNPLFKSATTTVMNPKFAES

[6] = tested on: HRV14; assay: Binding of [^35S]-Met labeled HRV14 to COS cells expressing ICAM-1 mutants; assay type: cell-based, human rhinovirus 14; conditions: 35S met-labeled HRV14 binding to COS cells expressing ICAM-1 mutant; normalized for percent of cells expressing mutant and for wild type binding; mean
[7] = tested on: CL203 mAb; assay: Indirect immunofluorescence flow cytofluorometry: mAb CL203 binding to COS cells expressing ICAM-1 mutants (SLFI, % WT); assay type: cell-based; conditions: SLFI of CL203 for mutant normalized to wild type CL203 SLFI; level of expression
Summary of the method: (§4)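 Transfected COS cells expressing ICAM-1 point mutants were stained by indirect immunofluorescence and analysed by flow cytometry. Specific linear fluorescence intensity of CL203 is expressed relative to wild-type CL203; RR1/1, R6.5 and LB-2 SLFI are expressed relative to CL203 SLFI of the same mutant.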

[8] = tested on: RR1/1 mAb; assay: Indirect immunofluorescence flow cytofluorometry: mAb RR1/1 binding to COS cells expressing ICAM-1 mutants (SLFI, % CL203); assay type: cell-based; conditions: SLFI normalized to CL203 SLFI of the mutant
Summary of the method: as §4

[9] = tested on: R6.5 mAb; assay: Indirect immunofluorescence flow cytofluorometry: mAb R6.5 binding to COS cells expressing ICAM-1 mutants (SLFI, % CL203); assay type: cell-based; conditions: SLFI normalized to CL203 SLFI of the mutant
Summary of the method: as §4

[10] = tested on: LB-2 mAb; assay: Indirect immunofluorescence flow cytofluorometry: mAb LB-2 binding to COS cells expressing ICAM-1 mutants (SLFI, % CL203); assay type: cell-based; conditions: SLFI normalized to CL203 SLFI of the mutant
Summary of the method: as §4

[11] = cycloheximide 20 μg/ml, actinomycin D 10 μM
[12] = cells treated with IFN-γ (10 U/ml) (18 hr), alone or plus the inhibitor named (cycloheximide 20 μg/ml, actinomycin D 10 μM)
[13] = cells treated with IFN-γ (10 U/ml) (18 hr), alone or plus the inhibitor named

Cc1c2oc3c(C)ccc(C(=O)N[C@@H]4C(=O)N[C@H](C(C)C)C(=O)N5CCC[C@H]5C(=O)N(C)CC(=O)N(C)[C@@H](C(C)C)C(=O)O[C@@H]4C)c3nc-2c(C(=O)N[C@@H]2C(=O)N[C@H](C(C)C)C(=O)N3CCC[C@H]3C(=O)N(C)CC(=O)N(C)[C@@H](C(C)C)C(=O)O[C@@H]2C)c(N)c1=O [actinomycin D] (I: T[dV]P[Sar][NMeV] / II: T[dV]P[Sar][NMeV]; ester I:1-I:C, II:1-II:C; linker I:N-II:N via Actinocin(9to1))
effect on interleukin 1 and gamma interferon induced ICAM-1 expression on fibroblasts [1, 11]: abolish the effects

cycloheximide
^125I Goat Anti-Mouse IgG Specifically Bound (cpm), anti-ICAM-1 [1, 12]: 1461 ± 59 cpm
^125I Goat Anti-Mouse IgG Specifically Bound (cpm), anti-ICAM-1 ([1]; cells treated with IL 1 (10 U/ml) (4 hr), alone or plus the inhibitor named (cycloheximide 20 μg/ml, actinomycin D 10 μM, tunicamycin 2 μg/ml)): 1619 ± 381 cpm
effect on interleukin 1 and gamma interferon induced ICAM-1 expression on fibroblasts [1, 11]: abolish the effects
^125I Goat Anti-Mouse IgG Specifically Bound (cpm), anti-ICAM-1 ([1]; no cytokine, Control (4 hr) 1524 ± 140, cycloheximide 20 μg/ml, actinomycin D 10 μM, tunicamycin 2 μg/ml, mean ± SD): 1513 ± 210 cpm
^125I Goat Anti-Mouse IgG Specifically Bound (cpm), anti-HLA-A,B,C [2, 13]: 10675 ± 800 cpm
^125I Goat Anti-Mouse IgG Specifically Bound (cpm), anti-HLA-A,B,C ([2]; cells treated with IL 1 (10 U/ml) (4 hr), alone or plus the inhibitor named): 12676 ± 446 cpm
^125I Goat Anti-Mouse IgG Specifically Bound (cpm), anti-HLA-A,B,C ([2]; no cytokine, Control (4 hr) 11928 ± 600, cycloheximide 20 μg/ml, actinomycin D 10 μM, tunicamycin 2 μg/ml, mean ± SD): 10678 ± 471 cpm

rIFN gamma: recombinant gamma interferon
^125I Specifically bound (CPM), HUVEC [3]: 3120 ± 308 CPM
fold of control ICAM-1 expression, HUVEC [3]: 5.2x
increase of ICAM-1 expression on HUVEC [3]: 5.2 fold
^125I Specifically bound (CPM), HSVEC [4]: 4002 ± 664 CPM
fold of control ICAM-1 expression, HSVEC [4]: 3.5x
increase of ICAM-1 expression on HSVEC [4]: 3.5 fold
^125I Goat Anti-Mouse IgG Specifically Bound (cpm), anti-ICAM-1 [1, 12]: 4659 ± 109 cpm
half-life for ICAM-1 induction ([1]; human dermal fibroblasts, 10 U/ml): 3.75 h
^125I Goat Anti-Mouse IgG Specifically Bound (cpm), anti-HLA-A,B,C [2, 13]: 23675 ± 500 cpm

rIL-1 beta: recombinant IL-1 beta
^125I Specifically bound (CPM), HUVEC [3]: 5680 ± 633 CPM
fold of control ICAM-1 expression, HUVEC [3]: 9x
increase of ICAM-1 expression on HUVEC [3]: 9 fold
half-maximal increase of ICAM-1 expression ([3]; endothelial cells (HUVEC and HSVEC)): 15 ng/mL
^125I Specifically bound (CPM), HSVEC [4]: 8320 ± 766 CPM
fold of control ICAM-1 expression, HSVEC [4]: 7.3x
increase of ICAM-1 expression on HSVEC [4]: 7.3 fold

B1: rIL-1 alpha: recombinant IL-1 alpha (protein, UniProt P01583 113-271, looked up)
Interleukin-1 alpha: SAPFSFLSNVKYNFMRIIKYEFILNDALNQSIIRANDQYLTAAALHNLDEAVKFDMGAYKSSKDDAKITVILRISKTQLYVTAQDEDQPVLLKEMPEIPKTITGSETNLLFFWETHGTKNYFTSVAHPNLFIATKQDYWVCLAGGPPSITDFQILENQA
^125I Specifically bound (CPM), HUVEC [3]: 9910 ± 538 CPM
fold of control ICAM-1 expression, HUVEC [3]: 16x

B2: N240DS/KNA (protein, UniProt P05362 28-532, looked up, variant N240K D241N S242A)
Intercellular adhesion …: QTSVSPSKVILPRGGSVLVTCSTSCDQPKLLGIETPLPKKELLLPGNNRKVYELSNVQEDSQPMCYSNCPDGQSTAKTFLTVYWTPERVELAPLPSWQPVGKNLTLRCQVEGGAPRANLTVVLLRGEKELKREPAVGEPAEVTTTVLVRRDHHGANFSCRTELDLRPQGLELFENTSAPYQLQTFVLPATPPQLVSPRVLEVDTQGTVVCSLDGLFPVSEAQVHLALGDQRLNPTVTYGKNAFSAKASVSVTAEDEGTQRLTCAVILGNQSQETLQTVTIYSFPAPNVILTKPEVSEGTEVTVKCEAHPRAKVTLNGVPAQPLGPRAQLLLKATPEDNGRSFSCSATLEVAGQLIHKNQTRELRVLYGPRLDERDCPGNWTWPENSQQTPMCQAWGNPLPELKCLKDGTFPLPIGESVTVTRDLEGTYLCRARSTQGEVTRKVTVNVLSPRYEIVIITVVAAAVIMGTAGLSTYLYNRQRKIKKYRLQQAQKGTPMKPNTQATPP
LFA-1 Binding % [5]: 147%
HRV Binding % [6]: 82%
Cl203 % WT (SLFI) [7]: 142 % WT
SLFI (% CL203) RR/1 [8]: 113 % CL203
SLFI (% CL203) R6.5 [9]: 125 % CL203
SLFI (% CL203) LB-2 [10]: 132 % CL203

B3: E254DE/KEK (protein, UniProt P05362 28-532, looked up, variant E254K D255E E256K)
Intercellular adhesion …: QTSVSPSKVILPRGGSVLVTCSTSCDQPKLLGIETPLPKKELLLPGNNRKVYELSNVQEDSQPMCYSNCPDGQSTAKTFLTVYWTPERVELAPLPSWQPVGKNLTLRCQVEGGAPRANLTVVLLRGEKELKREPAVGEPAEVTTTVLVRRDHHGANFSCRTELDLRPQGLELFENTSAPYQLQTFVLPATPPQLVSPRVLEVDTQGTVVCSLDGLFPVSEAQVHLALGDQRLNPTVTYGNDSFSAKASVSVTAKEKGTQRLTCAVILGNQSQETLQTVTIYSFPAPNVILTKPEVSEGTEVTVKCEAHPRAKVTLNGVPAQPLGPRAQLLLKATPEDNGRSFSCSATLEVAGQLIHKNQTRELRVLYGPRLDERDCPGNWTWPENSQQTPMCQAWGNPLPELKCLKDGTFPLPIGESVTVTRDLEGTYLCRARSTQGEVTRKVTVNVLSPRYEIVIITVVAAAVIMGTAGLSTYLYNRQRKIKKYRLQQAQKGTPMKPNTQATPP
LFA-1 Binding % [5]: 122%
HRV Binding % [6]: 99%
Cl203 % WT (SLFI) [7]: 180 % WT
SLFI (% CL203) RR/1 [8]: 178 % CL203
SLFI (% CL203) R6.5 [9]: 129 % CL203
SLFI (% CL203) LB-2 [10]: 81 % CL203
